Data published in publication PMC9122897, “SHR1032, a novel STING agonist, stimulates anti-tumor immunity and directly induces AML apoptosis” (Scientific Reports, 2022).
Read-outs that look alike come from different tables or passages of the source. Each block holds one compound with its values, some of them ahead of it.

Tests used:
THP1-STING-KO cells = experiment: CellTiter-Glo cell growth; assay type: cell-based, human
Procedure: (§1) (a–d) AML cells were treated with STING agonists and standard of care cytarabine, and cell viability was measured by CellTiter Glo in (a) THP1-STING-R232, (b) THP1-STING-KO, (c) MV-4-11 and (d) MOLM-16. (e) MV-4-11, MOLM-16 and THP1-STING-KO cells were stimulated with 1 µM of SHR1032 for the indicated time points. The amount of pTBK1, total TBK1, pSTING, total STING and α-tubulin was measured by Western blot. pSTING phosphorylated STING. THP1 reporter cells were treated for 24 h with a total of 100 k cells and 150 ul media in each well a 96-well plate. Following the incubation, 20 µl of supernatant was transferred to an opaque 96 well ½ area plate and incubated for 30 s with 50 µl of QUANTI-Luc substrate (InvivoGen) per manufacturer’s instructions. Luminescence signal was measured using Tecan infinite M1000. EC50 values were calculated using non-linear regression analysis of GraphPad Prism. Cell growth was monitored by CellTiter-Glo Luminescent Cell Viability Assay (Promega) per manufacture’s protocol. GI50 values were calculated using non-linear regression analysis of GraphPad Prism. Cell lysates for western blotting were made in RIPA buffer (Sigma) with Halt Protease and Phosphatase Inhibitors (Thermo Scientific). Antibodies against pSTING, TBK1, pTBK1 and tubulin were purchased from Cell Signaling Technologies, and anti-STING was purchased from Protein Tech.

THP1-STING-R232 cells = experiment: CellTiter-Glo cell growth; assay type: cell-based, human
Procedure: as §1

[1] = tested on: MC38 mouse syngeneic colorectal adenocarcinoma; experiment: MC38 syngeneic tumor model; assay type: in vivo, C57BL/6 mouse; details: 50 µg intratumorally on day 1, 5, 8; after 21 days since the first dosing
Procedure: Figure 3 Robust cytokine induction and antitumor effects in vivo. (a,b) C57BL/6 mice were inoculated with mouse MC38 colon cancer cells in the left flank. When tumor volumes were 100 mm^3, they received intratumoral (IT) dose of 100 µg of SHR1032 on day 1, 5, 8 and 12 or IT dose of 50 µg ADU-S100 on day 1, 5, and 8, or vehicle, respectively. (a) Tumor volume was measured at different time points. Results are shown as mean tumor volume ± sem. (n = 8 animals per group). (b) Mouse bodyweight was measured at different time points. (c–f) C57BL/6 mice were inoculated with mouse MC38 colon cancer cells in the left flank. When tumor volumes were 100 mm^3, they received one IT dose of 100 µg of SHR1032 or 50 µg ADU-S100, or vehicle. (c) IFNβ, (d) IL-6 and (e) TNFα from both tumor and plasma was measured by ELISA 4 h after. (f) SHR1032 compound concentration in tumors were measured.
Human and Cynomolgous PBMC’s were thawed and spun down in Lymphocyte media (ZENBIO) and resuspended in media to 1.5 x 10^6 cells/ml density. Mouse RAW 264.7 cells were detached from the flask and resuspended in media to 1.5 x 10^6 cells/ml density. Then, 100 µl of media containing the cells was added to each well of a 96-well plate containing compound in 50 µl of media. Plates were incubated for 5 h at 37 °C and supernatant was collected for ELISA analysis. Human and monkey IFN-β protein concentration was measured using human IFN-β Quantikine ELISA Kits (R&D Systems) per manufacture’s protocol. Mouse IFN-β was measured using mouse IFN-β Quantikine ELISA Kits (R&D Systems) per manufacture’s protocol. Mouse TNFα, IFN-β and IL-6 in the tumor lysates and plasma was measured by Quantikine ELISA Kits (R&D Systems) per manufacture’s protocol.
Female C57BL/6 mice, aged between 8 and 10 weeks old, were purchased from Charles River Lab. MC38 mouse colorectal cancer cells were resuspended as single cell solution in PBS at a concentration of 5 × 10^6 cells/ml. One hundred µl of cell suspension were implanted in the right flank of mice subcutaneously. Tumor size was measured by a caliper in three dimensions and its volume was then calculated according to the following formula: Tumor Volume (mm^3) = l * w * h * 0.5236, where l = length, w = width and h = height in mm for a tumor. When the average tumor volume reached around 100 mm^3, the mice were randomly assigned into three groups (n = 8) and each group of mice received one regimen. This day was assigned as day 0 for the study. […] Tumor volume and body weight were measured 3 times per week throughout the study. […] Cytokines and SHR1032 concentration in the plasma and tumor tissues were analyzed. […]

THP1 reporter cells = experiment: THP1 IRF luciferase reporter assay; assay type: cell-based; details: Homo sapiens, THP-1; IRF Lucia luciferase reporter, 24 h; read-out: THP1 reporter cell EC50
Description: (§2) We sought to develop small molecule compounds with increased STING agonist activity against human STING. GSK reported a series of non-CDN small molecules, represented by compound 1[13], with good human STING agonistic activity. Based on our molecular modeling analysis, along with the reported CDN-STING crystal structures, we designed a novel series of fused tricyclic heterocycle compounds and analyzed their binding to human STING with thermal shift assays and the potency in activation of STING signaling with a reporter cellular assay (Supplementary Table S1). Thermal shift assays measure the difference between apo STING and ligand bound STING in the inflection point at which 50% of protein is thermally unfolded (ΔTm). […] The ability of compounds to activate the IRF reporter gene in the THP1 cells was also evaluated.
THP1 reporter cells were treated for 24 h with a total of 100 k cells and 150 ul media in each well a 96-well plate. […] Luminescence signal was measured using Tecan infinite M1000. EC50 values were calculated using non-linear regression analysis of GraphPad Prism. Cell growth was monitored by CellTiter-Glo Luminescent Cell Viability Assay (Promega) per manufacture’s protocol. GI50 values were calculated using non-linear regression analysis of GraphPad Prism. […]

human STING = target: T1, human STING (Homo sapiens, UniProt Q86WV6); experiment: Thermal shift assay; assay type: binding; details: human STING protein 5 uM; ligand bound vs apo
T1 construct: made in house; host or cells: E. coli
Description: as §2
The melting temperature (Tm) of human STING was determined by calculating the temperature at the inflection point of the thermal melt curve generated on a Roche LightCycler 480 using 384 plate format and 465–590 nm filter set. […] Florescence was measured while ramping the plate temperature from 20 to 95 °C and the resulting data was processed using ROCHE data analysis software. Delta Tms were calculated by subtracting the Tm of untreated protein from ligand treated samples. […]

MV4-11 cells = experiment: CellTiter-Glo cell growth; assay type: cell-based; details: Homo sapiens; MV4-11, CellTiter Glo
Procedure: as §1

MOLM-16 cells = experiment: CellTiter-Glo cell growth; assay type: cell-based; details: Homo sapiens, MOLM16; MOLM-16, CellTiter Glo
Procedure: as §1

T1 sequence (Q86WV6 155-341 limits assumed): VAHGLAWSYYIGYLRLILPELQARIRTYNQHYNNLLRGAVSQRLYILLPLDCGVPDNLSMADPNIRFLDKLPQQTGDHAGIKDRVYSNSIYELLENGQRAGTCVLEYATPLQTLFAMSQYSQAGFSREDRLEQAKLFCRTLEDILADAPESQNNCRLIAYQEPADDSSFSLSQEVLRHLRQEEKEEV

SMILES: Nc1ncnc2c1ncn2[C@@H]1O[C@@H]2COP(=O)([S-])O[C@@H]3[C@H](O)[C@@H](COP([O-])(=S)O[C@H]2[C@H]1O)O[C@H]3n1cnc2c(N)ncnc21.[Na+].[Na+] (some centres unmarked) [ADU-S100, reference compound]
- cell growth inhibition (THP1-STING-KO cells): not detectable
- GI50 (THP1-STING-R232 cells): 9440 nM
- tumor response [1]: complete tumor regression

- EC50 (THP1 reporter cells): 1600 nM
- Thermal shift ∆Tm (human STING): 5.7 °C
SMILES: C=CC[C@H]1COc2cc(C(N)=O)cc3nc(NC(=O)c4cc(C)nn4CC)n1c23 [Compound 2]

- GI50 (MV4-11 cells): 340 nM
- GI50 (MOLM-16 cells): 450 nM
- GI50 (THP1-STING-R232 cells; Homo sapiens): 100 nM
SMILES: Nc1ccn([C@@H]2O[C@H](CO)[C@@H](O)[C@@H]2O)c(=O)n1 [cytarabine, reference compound]
